Results published in patent US7732200B2, “Materials and methods for nerve grafting, selection of nerve grafts, and in vitro nerve tissue culture” (University of Florida Research Foundation, Inc., priority 2001, dated 2010).

How the values were obtained:
[1] = test system: embryonic chick DRG neurons; experiment: Cryoculture bioassay of chondroitinase-treated acellular rat nerve segments; type: cell-based
From the text: (§1) Preparation of acellular nerve grafts treated with chondroitinase: Adult (180-200 g) female SPRAGUE DAWLEY rats (HARLAN, Indianapolis, Ind.) were used as nerve donors and recipient hosts. Donor rats were anesthetized with halothane and decapitated. Sciatic nerves were exposed through a gluteal muscle-splitting incision and isolated free of underlying fascia. A 15-mm nerve segment was excised rostral to the bifurcation into common peroneal and tibial nerves. The segments were rinsed with cold sterile Ringer's solution, stabilized by pinning the ends to a thin plastic support, and transferred to a cryogenic vial. The vials were submerged in liquid nitrogen for 2 minutes and then transferred to a 37° C. water bath for 2 minutes. This freeze/thaw cycle was repeated, yielding acellular nerve grafts that were then stored in liquid nitrogen. On the day before grafting, the nerve grafts were warmed to room temperature and incubated in 100 μl phosphate buffered saline pH 7.4 (PBS) containing 2 units/ml chondroitinase ABC (SIGMA, St. Louis, Mo.) or in PBS (vehicle) only for 16 hours at 37° C. The grafts were rinsed twice with Ringer's and kept on ice prior to use. The chondroitinase ABC preparation was highly purified and stated by the manufacturer to be essentially free of protease activity.
Cryoculture bioassay. Cryoculture is a neurite outgrowth assay in which neurons are cultured directly on fresh/frozen nerve sections and was performed as described previously (Ferguson T A et al. [2000] Mol Cell Neurosci, 16:157-167). Briefly, chondroitinase- and vehicle-treated nerve segments were sectioned at 20 μm, mounted on sterile, aminopropyltriethoxysilane (APTS)-coated coverslips and stored at −20° C. until used. Where indicated, sections were treated with chondroitinase ABC (0.1 unit/ml) or vehicle (50 mM Tris-HCl, pH 8.0), containing 50 mM NaCl) for 2 h at 37° C. Purified dorsal root ganglionic (DRG) neurons from day 8 chick embryos were seeded directly on the nerve sections in a defined N2 medium (Bottenstein J E et al. [1980] Exp Cell Res 125:183-190) containing 10 ng/ml nerve growth factor. Cryoculture assays were terminated after 24 h of incubation by fixation with 100% methanol. Neuritic growth by DRG neurons was accessed by GAP-43 immunofluorescent labeling. […] Neurite lengths were measured directly using IMAGE-PRO PLUS software (MEDIA CYBERNETICS, Silver Springs, Md.). At least 250 neurons with neurites greater than one cell body (˜15 μm) were scored for each condition in each experiment.
Inactivation of inhibitory CSPG in chondroitinase-treated acellular nerve was determined by cryoculture bioassay. Embryonic chick DRG neurons were seeded onto sections of prepared nerve segments and the neurite-promoting activity was assessed by scoring neurite growth. […]

rat sciatic nerve = experiment: Human-to-rat acellular nerve xenograft model (GAP-43 profiles); type: in vivo; conditions: acellular human nerve fascicle grafts in rat, 8 days, 2 rats
Procedure: In the following experiments, the hypothesis that chondroitinase treatment improves nerve regeneration through acellular human nerve grafts in a rat xenograft model was tested. Subunits (individual fascicles) taken from human nerves were treated en bloc with vehicle or chondroitinase ABC. Ten-mm interpositional nerve grafts were joined to the rat host sciatic nerve by epineurial neurorrhaphy reinforced with fibrin glue. Each of 2 host rats received bilateral grafts, one vehicle-treated and one chondroitinase-treated graft. Regeneration was initially examined after 8 days. Axonal growth was assessed at specified spatial intervals within the graft by scoring GAP-43-immunopositive profiles in transverse sections.

chick DRG neurons = experiment: Cryoculture assay using human nerve segments; type: cell-based; conditions: DRG neurons 24 h; P<0.001 vs vehicle
Procedure: Cryoculture bioassay. Cryoculture is a neurite outgrowth assay in which neurons are cultured directly on fresh/frozen nerve sections and was performed as described previously (Ferguson T A et al. [2000] Mol Cell Neurosci, 16:157-167). Briefly, chondroitinase- and vehicle-treated nerve segments were sectioned at 20 μm, mounted on sterile, aminopropyltriethoxysilane (APTS)-coated coverslips and stored at −20° C. until used. Where indicated, sections were treated with chondroitinase ABC (0.1 unit/ml) or vehicle (50 mM Tris-HCl, pH 8.0), containing 50 mM NaCl) for 2 h at 37° C. Purified dorsal root ganglionic (DRG) neurons from day 8 chick embryos were seeded directly on the nerve sections in a defined N2 medium (Bottenstein J E et al. [1980] Exp Cell Res 125:183-190) containing 10 ng/ml nerve growth factor. Cryoculture assays were terminated after 24 h of incubation by fixation with 100% methanol. Neuritic growth by DRG neurons was accessed by GAP-43 immunofluorescent labeling. Epifluorescent photomicrographs were acquired as described for tissue sections. Neurite lengths were measured directly using IMAGE-PRO PLUS software (MEDIA CYBERNETICS, Silver Springs, Md.). At least 250 neurons with neurites greater than one cell body (˜15 μm) were scored for each condition in each experiment. […]

sciatic nerve = experiment: Axonal regeneration after sciatic nerve transection (neurotmesis) and neurorrhaphic repair; type: in vivo, rat
CSPG = CSPG neoepitope (Ab1918) and laminin immunolabeling of acellular nerve segments treated en bloc; conditions: acellular rat sciatic nerve segments bathed en bloc 16 h, 2 units/ml
From the text: as §1, with “The chondroitinase ABC preparation was highly purified and stated by the manufacturer to be essentially free of protease activity.” left out
Immunocytochemistry. Axonal regeneration was assessed by GAP-43 immunofluorescence and digital image analysis. […]

With chondroitinase ABC the average neurite length ([1]; acellular nerve pretreated en bloc, DRG neurons 24 h) was 96 μm, the “increase in neurite growth compared to the control condition” value ([1]; en bloc treatment vs en bloc vehicle) was 95% and the “increase in neurite-promoting activity by post-treatment of sections” value ([1]; nerve treated en bloc with vehicle only, sections post-treated 0.1 unit/ml 2 h) was 86%. For the same substance, the “effect of post-treatment on sections from en bloc treated nerve” value ([1]; sections of en bloc chondroitinase-treated nerve grafts) was “only a slight additive effect”, the “average number of axons (GAP-43-immunopositive profiles) entering grafts vs control grafts” value (rat sciatic nerve) was “more than three-fold greater” and the “growth-promoting properties of human nerves (neurite length)” value (chick DRG neurons) was “increased”. For the same substance, the “score of axons immediately distal to the coaptation vs control” value (sciatic nerve; 1 U in 2 μl, 4 days after injury, 7 nerves per condition) was “two-fold greater”, the “animals in which the number of axons entering the distal nerve was greater than in the control nerve” value (sciatic nerve; 4 days after injury) was 7/7 and the “propensity of axons to regrow within basal laminae of the distal nerve” value (sciatic nerve; GAP-43 and laminin double-immunolabeling) was “unaltered”. For the same substance, the “animals with increases greater than 3.5-fold” value (sciatic nerve; axons immediately distal to coaptation, 4 days) was 3/7 and the “CSPG degradation by Ab1918 neoepitope immunostaining” value (CSPG) was “thoroughly degraded CSPG side-chains”.
